Experimental data as given in US5627161A (Memorial Hospital for Cancer and Allied Diseases, priority 1993, dated 1997).

Test system: PRPP levels of isolated splenocytes
Test: PRPP levels of isolated splenocytes incubated in vitro with UDPG or G-6-P
Type: cell-based, mouse
Conditions: for PRPP levels: soluble fraction of homogenates
Protocol: Isolation of splenocytes and hepatic cells: The organs were gently teased apart with forceps over a fine tea strainer into PBS or minimum essential culture medium (MEM) containing 0.1M potassium phosphate buffer pH 7.4 with and without added effectors. […] The supernatant solutions were assayed for PRPP.
The vials were shaken vigorously and their radioactivity determined.

O=P(O)(O)OC[C@H]1OC(O)[C@H](O)[C@@H](O)[C@@H]1O (some centres unmarked) [G-6-P, Glucose-6-phosphate]
PRPP levels (1.1 mM in MEM): 969 pmoles/mg protein | PRPP levels (5.5 mM in MEM): 1418 pmoles/mg protein | PRPP levels (11 mM in MEM): 1510 pmoles/mg protein | PRPP levels (22 mM in MEM): 1998 pmoles/mg protein | effect on intracellular PRPP level of splenocytes as a function of concentration (isolated splenocytes, in words): not evident below a concentration of 5.5 mM
